Like-named read-outs stand apart in the source and are kept apart here.
Columns and labels:
Type in all cases: cell-based
Proteus rettgeri 1434-3 = assay: MIC and FIC, Nutrient agar (Test 3); conditions: Providencia rettgeri, 14343; P. rettgeri 1434-3; 20 h
Description: (§1) After the incubation was carried out at 37° C. for 20 hours, MIC values were determined.
(§2) FIC values and FIC Index were calculated in substantially the same manner as described in Test 1.

[1] = test system: Pseudomonas aeruginosa 1101-76; assay: MIC and FIC, Nutrient agar (Test 3); conditions: Pseudomonas aeruginosa, 110176; P. aeruginosa 1101-76; 20 h; read-out: MIC
Citrobacter freundii 35 = assay: MIC and FIC, Nutrient agar (Tests 6, 7, 9)
Proteus vulgaris 7 = assay: MIC and FIC, Nutrient agar (Tests 7, 9); conditions: Proteus vulgaris; P. vulgaris 7; 18 h; read-out: MIC
[2] = test system: Enterobacter cloacae 1401-4; assay: MIC and FIC, Nutrient agar (Tests 2, 3); conditions: Enterobacter cloacae, 14014; E. cloacae 1401-4; 20 h; read-out: MIC
[3] = test system: Klebsiella pneumoniae NCTC 418; assay: MIC and FIC, Nutrient agar (Tests 2, 3); conditions: NCTC418, K. pneumoniae NCTC 418, 20 h
Description: as §1

[4] = test system: Staphylococcus epidermidis 1601-1; assay: MIC and FIC, Nutrient agar (Tests 2, 3); conditions: 16011, S. epidermidis 1601-1, 20 h
Description: as §1

Proteus morganii 1433-2 = assay: MIC and FIC, Nutrient agar (Tests 2, 3); conditions: Morganella morganii, 14332; P. morganii 1433-2; 20 h
Description: as §1

[5] = test system: Escherichia coli 1341-18R^+; assay: MIC and FIC, Nutrient agar (Test 3); conditions: 20 h
[6] = test system: Enterobacter aerogenes 1402-10; assay: MIC and FIC, Nutrient agar (Tests 2, 3); conditions: Klebsiella aerogenes, 140210; E. aerogenes 1402-10; 20 h; read-out: MIC
[7] = test system: Serratia marcescens 1421-4; assay: MIC and FIC, Nutrient agar (Tests 2, 3)
[8] = test system: Salmonella typhimurium 1406; assay: MIC and FIC, Nutrient agar (Tests 2, 3); conditions: Salmonella enterica, TYPHIMURIUM, 20 h
[9] = test system: Proteus mirabilis 1432-75; assay: MIC and FIC, Nutrient agar (Tests 2, 3); conditions: Proteus mirabilis, 143275, 20 h
Staphylococcus aureus 3 = assay: MIC and FIC, Nutrient agar (Tests 6, 7); conditions: Staphylococcus aureus; S. aureus 3; 18 h; read-out: MIC
Description: as §2

Enterobacter aerogenes 7 = assay: MIC and FIC, Nutrient agar (Tests 6, 7, 9); conditions: Klebsiella aerogenes; E. aerogenes 7; 18 h; read-out: MIC
Description: as §2

Which MIC (Proteus rettgeri 1434-3) does the source give for `Cc1nnc(SCC2=C(C(=O)O)N3C(=O)[C@@H](NC(=O)Cn4cnnn4)[C@H]3SC2)s1` [B (Table 3), cefazolin] here?
Its MIC is 6.25 µg/mL.

And the MIC [1]?
The MIC was at least 400 µg/mL.

What about the MIC (Citrobacter freundii 35; Citrobacter freundii, C. freundii 35, 18 h, read-out: MIC) of the same molecule?
The MIC was 50 µg/mL.

And the MIC (Proteus vulgaris 7)?
The MIC was 100 µg/mL.

And the MIC [2]?
Its MIC is at least 400 µg/mL.

What about the MIC [3] of the same molecule?
Its MIC is 1.56 µg/mL.

And the MIC [4]?
The MIC was 0.39 µg/mL.

And the MIC (Proteus morganii 1433-2)?
The MIC was 25 µg/mL.

And the MIC [5]?
Its MIC is 3.13 µg/mL.

And the MIC [6]?
Its MIC is 12.5 µg/mL.

And the MIC ([7]; Serratia marcescens, 14214, S. marcescens 1421-4, agar, 20 h, read-out: MIC)?
The MIC was 400 µg/mL.

How did the MIC [8] turn out when `CC1(C)S[C@@H]2[C@H](NC(=O)C(C(=O)O)c3ccsc3)C(=O)N2[C@H]1C(=O)O` (some centres unmarked) [B (Table 4), ticarcillin] was run?
The MIC was 1.56 µg/mL.

And the MIC [2]?
Its MIC is 50 µg/mL.

And the MIC [3]?
Its MIC is 100 µg/mL.

What about the MIC [9] of the same molecule?
Its MIC is 0.78 µg/mL.

What about the MIC [4] of the same molecule?
Its MIC is 3.13 µg/mL.

And the MIC ([7]; Serratia marcescens, 14214, 20 h)?
The MIC was 25 µg/mL.

For `NC[C@H]1O[C@H](O[C@H]2[C@H](O)[C@@H](O[C@H]3O[C@H](CO)[C@@H](O)[C@H](N)[C@H]3O)[C@H](N)C[C@@H]2N)[C@H](N)C[C@@H]1O` [B (Table 9), Tobramycin], which MIC (Staphylococcus aureus 3) is on record?
Its MIC is 0.39 µg/mL.

And the MIC (Citrobacter freundii 35; Citrobacter freundii, 35, 18 h)?
The MIC was 3.13 µg/mL.

And the MIC (Enterobacter aerogenes 7)?
Its MIC is 6.25 µg/mL.

From patent US4330529A, “Antibacterial composition” (Fujisawa Pharmaceutical Co., Ltd., priority 1979, dated 1982)
